Laboratory results taken from US20250360130A1, “METHODS OF TREATING INDOLENT SYSTEMIC MASTOCYTOSIS” (Telios Pharma Inc., priority 2024, published 2025).

Assays:
MRGPRX2 = test: MRGPRX2-mediated cytokine production in ISM-like mast cells; format: cell-based, human
Protocol: Human mast cells were differentiated from bone marrow CD34+ cells from four healthy donors and were cultured in the presence of SCF (100 ng/mL) to mimic mast cells in ISM and treated with Compound 128 for two hours prior to stimulation. Mas-related G protein-coupled receptor (MRGPRX2) agonists, Compound 48/80 (C48/80; a product of N-methyl-p-methoxyphenethylamine with formaldehyde) or Substance P (SP) were used to activate the MRGPRX2 pathway. For pBTK test, cells were stimulated with C48/80 (10 μg/mL) for ten minutes at 37° C. and cells were stained. The median fluorescence intensity of phosphorylated BTK was measured. The fold change over unstimulated control for pBTK was calculated. For cytokine test, cells were stimulated with C48/80 (10 μg/mL) or SP (30 μM) for four hours at 37° C. Supernatant was collected and cytokine levels were measured using the BD Cytometric Bead Array (CBA) human soluble protein master buffer kit (Becton Dickinson) and BD CBA human soluble protein flex sets for IL-8, MCP-1, GM-CSF and IL-13 (Becton Dickinson). Cytokine levels were measured and normalized to percent of control, with 0% representing the level of the unstimulated control.

[1] = system: mast cells derived from ISM patients; test: Degranulation of mast cells grown from CD34+ blood cells from ISM patients (FIG. 22); format: cell-based, human; details: antigen stimulation in absence of SCF
mast cells [2] = test: Return of degranulation after Compound 128 exposure and washout (FIG. 18); format: cell-based, human; details: after Compound 128 exposure, flow cytometry
Excerpt: FIGS. 18A-D show return of degranulation after Compound 128 exposure.

mast cells [3] = test: Downstream signaling proteins in antigen-stimulated mast cells (FIG. 20); format: cell-based; details: mast cells stimulated with an antigen
basophils = test: Anti-IgE induced IL-4 production from basophils in whole blood; format: cell-based, human; details: whole blood from a healthy donor, two hours treatment, anti-IgE six hours
Protocol: Human mast cells lines, ROSA with wildtype KIT and ROSA […] with D816V KIT mutation (ISM-like cells), were licensed from CRNS Innovation and cultured with or without stem cell factor (100 ng/ml), respectively (FIG. 12A). ROSA cells were stimulated with IL-4 (20 ng/ml; R&D Systems) for 18 hours, stained for FcεRIα (Becton Dickinson) for 30 minutes on ice, washed twice with FACS buffer and data was acquired on a flow cytometer. The median fluorescence intensity of FcεRIα was measured. […] Whole blood from a healthy donor was treated with Compound 128 for two hours and the basophils were stimulated with anti-IgE (1 μg/mL; Beckman Coulter) for six hours (FIG. 12B). Plasma was collected and IL-4 levels were measured using the BD CBA human soluble protein master buffer kit and BD CBA human soluble protein flex set for IL-4 (Becton Dickinson). A four-parameter logistic regression analysis was performed on the cytokine levels to determine the EC50 and EC90. […] Therefore, Compound 128 may indirectly effect FcεRI expression by the reduction of IL-4 levels.

mast cells [4] = test: Monomeric IgE-mediated degranulation and cytokine production in mast cells; format: cell-based, human; details: mast cells from a healthy donor, 2 hours treatment, myeloma IgE with SCF
Protocol: Mast cells from a healthy donor were starved of SCF for 18 hours and treated with Compound 128 for 2 hours. Mast cells were stimulated with SCF (100 ng/ml) or myeloma IgE (3 μg/ml; Millipore Sigma) alone or in combination for 30 minutes (CD63 and Histamine) or 24 hours (cytokine production), respectively. For the histamine and cytokine test, supernatant was collected and the levels of histamine and cytokines were measured as set forth in Example 4 for histamine and Example 7 for cytokines. For the CD63 test, the cells were stained for CD63, data was acquired on a flow cytometer and percent activated mast cells calculated as set forth in Example 4. […] The monomeric IgE contribution to degranulation and cytokine production is inhibited by Compound 128.

[5] = system: mast cell from an ISM patient; test: IgE-mediated calcium influx in ISM patient mast cells (FIG. 17); format: cell-based, human; details: presence of SCF, prior to antigen stimulation
Protocol: Mast cell from an ISM patient was treated with Compound 128 at 50 mg, 75 mg, 100 mg, and 150 mg BID dose prior to antigen (Ag) stimulation. ISM 3-2 mast cell donor MC 1061-004 C1D8 D39. Experiments performed in the presence of SCF. […] Percent of Control (POC) based on Area-under-Curve above baseline (1st value).

BTK = BTK (Homo sapiens, UniProt Q06187); test: Phospho-BTK (pBTK) test in basophils, whole blood; format: cell-based; parameters: Human mast cells were differentiated from bone marrow CD34+ cells from six healthy donors; endogenous in cells; host or cells: human mast cells differentiated from bone marrow CD34+ cells of healthy donors, cultured with SCF; details: 24 hours exposure, CCR3+ basophils, anti-FcεR stimulation; read-out: average EC50 (n=4), pBTK (Y223) normalized to DMSO control
Chain of BTK (Q06187 whole entry): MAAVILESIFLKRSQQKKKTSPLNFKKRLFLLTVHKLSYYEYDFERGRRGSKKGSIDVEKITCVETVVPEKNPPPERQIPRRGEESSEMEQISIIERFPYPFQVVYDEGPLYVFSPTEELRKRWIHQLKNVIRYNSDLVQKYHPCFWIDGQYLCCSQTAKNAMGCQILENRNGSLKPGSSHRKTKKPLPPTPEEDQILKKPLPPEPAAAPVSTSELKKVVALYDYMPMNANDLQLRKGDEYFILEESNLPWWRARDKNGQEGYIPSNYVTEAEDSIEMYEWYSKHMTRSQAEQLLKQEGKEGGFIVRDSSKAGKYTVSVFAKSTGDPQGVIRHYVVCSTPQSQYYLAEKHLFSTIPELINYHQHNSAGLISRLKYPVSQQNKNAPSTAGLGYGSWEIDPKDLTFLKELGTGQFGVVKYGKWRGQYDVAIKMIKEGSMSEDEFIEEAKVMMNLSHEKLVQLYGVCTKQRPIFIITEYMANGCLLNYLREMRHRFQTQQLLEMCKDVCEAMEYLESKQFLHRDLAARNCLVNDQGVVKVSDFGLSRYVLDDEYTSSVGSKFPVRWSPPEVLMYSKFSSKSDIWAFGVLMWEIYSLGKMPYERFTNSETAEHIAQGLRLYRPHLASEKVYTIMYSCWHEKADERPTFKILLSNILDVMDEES
Protocol: Blood from four healthy donors was drawn and Compound 128 was added at various concentrations (10 µM, 3.16 μM, 1 μM, 0.3 μM, 0.1 μM, 0.03 μM, or 0 μM). Blood samples were gently rocked at room temperature for 24 hours. The pBTK test was then conducted by (1) stimulating the blood with anti-FcεR stimulation control from Flow Cast Basophil Activation Kit and staining cells for CCR3 (Becton Dickinson) and a near-IR dead cell stain (nIR; Invitrogen) for 15 minutes at 37° C., (2) lysing red blood cells and fixing cells with Phosflow Lyse/Fix Buffer (Becton Dickinson) at 37° C. for 10 minutes, (3) washing once with 1× phosphate-buffered saline (PBS), (4) washing twice with Perm/Wash buffer (Becton Dickinson), (5) permeabilizing cells with Perm/Wash buffer on ice for 15 minutes, (6) staining cells for rabbit anti-human pBTK (Abcam) for 30 minutes on ice, (7) washing twice with Perm/Wash buffer, (8) staining with goat anti-rabbit secondary antibody (Invitrogen) for 30 minutes on ice, (9) washing twice with Perm/Wash buffer, and (10) acquiring data on a flow cytometer. Live basophils were defined as nIR−, CCR3+ and low side scatter. The median fluorescence intensity of phosphorylated BTK was measured and percent of stimulated control was calculated. […] The percent of stimulated control of activated mast cells (CD63+) was calculated. […]

C=CC(=O)N1CCC(F)(CNc2ncnc(N)c2-c2ccc(Oc3ccccc3)cc2)CC1 [Compound 128, 1-(4-(((6-amino-5-(4-phenoxyphenyl)pyrimidin-4-yl)amino)methyl)-4-fluoropiperidin-1-yl)prop-2-en-1-one]
MRGPRX2-mediated cytokine production (MRGPRX2; 0.1 μM): partially inhibited | MRGPRX2-mediated cytokine production (MRGPRX2; 0.5 and 1 μM): inhibition of cytokine production was increased | C48/80-mediated cytokine production (MRGPRX2; Compound 48/80 agonist): partial inhibition | SP-mediated cytokine production (MRGPRX2; Substance P (SP) agonist): fully inhibited | degranulation of ISM patient-derived mast cells [1]: inhibited the degranulation | time to restoration of degranulation after inhibition (mast cells [2]): ≤ 24 h | activation of multiple downstream signaling proteins (mast cells [3]): can be inhibited | IgE-mediated IL-4 production (basophils): potently inhibited | monomeric IgE contribution to degranulation and cytokine production (mast cells [4]): inhibited | IgE-mediated calcium influx [5]: potently inhibits | EC50 (BTK): 130 nM
